This note sets out measurements from patent publication US8110528B2, “Active ingredient combinations with insecticidal properties” (Bayer Cropscience AG, priority 2006, dated 2012).

In one experiment the test system is Myzus persicae. Put plainly: Myzus persicae test (cabbage leaf dip). In kind it is in vivo, green peach aphid (Myzus persicae). Conditions: cabbage leaves dipped. From the text:
(§1) The expected activity for a given combination of two active compounds can be calculated according to S. R. Colby, Weeds 15 (1967), 20-22 as follows: • If • X is the kill rate, expressed in % of the untreated control, when active compound A is applied at an application rate of m g/ha or at a concentration of m ppm, • Y is the kill rate, expressed in % of the untreated control, when active compound B is applied at an application rate of n g/ha or at a concentration of n ppm and • E is the kill rate, expressed in % of the untreated control, when active compounds A and B are applied at application rates of m and n g/ha or at a concentration of m and n ppm, then
(§2) If the actual insecticidal kill rate is greater than calculated, the kill of the combination is superadditive, i.e. there is a synergistic effect. In this case, the actual observed kill rate has to be greater than the value for the expected kill rate (E) calculated from the formula given above.
• Solvent: 7 parts by weight of dimethylformamide • Emulsifier: 2 parts by weight of alkylaryl polyglycol ether […]
After the desired period of time, the kill in % is determined. […] The kill rates determined are entered into the Colby formula (see sheet 1).

For another experiment, the system named is Phaedon cochleariae. Put plainly: Phaedon cochleariae larvae test (cabbage leaf dip). In kind it is in vivo, mustard beetle (Phaedon cochleariae) larvae. Conditions: cabbage leaves dipped.
Text: as §1, §2
• Solvent: 7 parts by weight of dimethylformamide • Emulsifier: 2 parts by weight of alkylaryl polyglycol ether
To produce a suitable preparation of active compound, 1 part by weight of active compound is mixed with the stated amounts of solvent and emulsifier, and the concentrate is diluted with emulsifier-containing water to the desired concentration.
Cabbage leaves (Brassica oleracea) are treated by being dipped into the preparation of active compound of the desired concentration and populated with larvae of the mustard beetle (Phaedon cochleariae) while the leaves are still moist.
After the desired period of time, the kill in % is determined. 100% means that all beetle larvae have been killed; 0% means that none of the beetle larvae have been killed. The kill rates determined are entered into the Colby formula (see sheet 1).

Consider `O=C1C=C(N(Cc2ccc(Cl)nc2)C2CC2)CO1` [compound (Ib)], for which the “Kill in % after 6d” value in the experiment on Myzus persicae (0.8 ppm) is 25%; in the experiment with Phaedon cochleariae (20 ppm) it was 11%.
With `CN(Cc1ccc(Cl)nc1)C1=CC(=O)OC1` [compound (Ia)], the “Kill in % after 4d” value in the experiment on Phaedon cochleariae (20 ppm) is 5%.
As to `CN/C(=N\[N+](=O)[O-])NCc1cnc(Cl)s1` [clothianidin], the “Kill in % after 6d” value with Myzus persicae (0.16 ppm) came to 35%; with Phaedon cochleariae (4 ppm), 21%. In addition, the “Kill in % after 4d” value in the experiment with Phaedon cochleariae (4 ppm) is on record as 25%.
